In patent publication US20170290821A1 (priority 2014, published 2017):
Counter-ions that a name gives are not always drawn. Like-named read-outs stand apart in the source and are kept apart here.

Key:
[1] = test system: HEK293 cells or A549 cells; assay: Cell viability with inhibitors (CellTiter-Glo, Example 2), cell line not specified; type: cell-based, human; conditions: for cell viability: 48 hours
Experimental: Specifically, HEK293 cells or A549 cells were infected with an influenza virus with an MOI of 0.001. Cells 1 hour after the infection were washed and then cultured in a culture solution containing inhibitors, a DMSO solution (final concentration: 1 volume %) was used as a control instead of the inhibitors. […] In addition, a cell viability (%) was calculated using a CellTiter-Glo assay system (commercially available from Promega Corporation) according to the appended instructions. The number of cells cultured in a medium containing the inhibitors with respect to the number of living cells in cells cultured in a medium containing the control (the DMSO solution) was calculated as the cell viability (%).

influenza virus = type: cell-based
A549 cells [2] = assay: Cell viability with inhibitors (CellTiter-Glo, Example 2), A549; conditions: 0.2 μM
Experimental: (§3) In addition, a cell viability (%) was calculated using a CellTiter-Glo assay system (commercially available from Promega Corporation) according to the appended instructions. The number of cells cultured in a medium containing the inhibitors with respect to the number of living cells in cells cultured in a medium containing the control (the DMSO solution) was calculated as the cell viability (%).

[3] = biological target: T1, adenine nucleotide transporter (ANT) (Homo sapiens, UniProt P05141); conditions: cited from earlier work
T1 sequence (P05141 1-298): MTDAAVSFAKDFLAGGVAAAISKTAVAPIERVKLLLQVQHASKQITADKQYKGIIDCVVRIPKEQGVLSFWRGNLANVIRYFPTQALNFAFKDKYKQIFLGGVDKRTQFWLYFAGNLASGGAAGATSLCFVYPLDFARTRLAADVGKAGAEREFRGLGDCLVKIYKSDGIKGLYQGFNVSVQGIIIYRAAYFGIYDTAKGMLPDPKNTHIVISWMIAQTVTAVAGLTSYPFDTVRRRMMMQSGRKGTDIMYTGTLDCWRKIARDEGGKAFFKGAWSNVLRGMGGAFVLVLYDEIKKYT

A549 cells [4] = test system: A549 cells
Experimental: as §3

[5] = Cytotoxicity test (Cell Counting Kit-8), A549; type: cell-based; conditions: human, A549 cells, read-out: CC50 (50% cytotoxicity concentration) (converted)
[6] = Cytotoxicity test (Cell Counting Kit-8), HEK293; type: cell-based, human; conditions: human, 293 (HEK293) cells, read-out: CC50 (50% cytotoxicity concentration) (converted)
Experimental: (§1) First, as test compound solutions, test compounds were prepared in 1% dimethylsulfoxide-containing MEMs so that a final concentration was 1000, 100, 10, 1, 0.1, 0.01, or 0.001 μM.
(§2) Cell fluids in which MDCK cells, A549 cells, and HEK293 cells were prepared at concentrations of 6.25×10^5 cells/mL, 2.5×10^6 cells/mL, and 1.25×10^5 cells/mL in minimum essential mediums (MEMs) were added to a 96-well plate at 0.1 ml/well and the cells were seeded. The cells in the 96-well plate were cultured in a carbon dioxide incubator at 37° C. and washed with MEM the day after the seeding date. In the washed cells in the 96-well plate, 0.1 mL of each test compound solution was added to three wells for each concentration and the cells in the 96-well plate were then cultured in a carbon dioxide incubator at 37° C. for 48 hours. After the culture, a Cell Counting Kit-8 solution (commercially available from Dojindo Molecular Technologies, Inc.) was added to each well at 10 μL and culture was additionally performed at 37° C. for several hours. After the culture, an absorbance at 450 nm of a solution of each well in the 96-well plate was measured using a microplate reader. An absorbance value when a solvent (1% dimethylsulfoxide-containing MEM) was added in place of the test compound was set to 100% at which the whole cells survived. A final concentration value of the test compound when an absorbance was 50% was calculated as a 50% cytotoxicity concentration (CC50 value).

HEK293 cells = assay: Cytotoxicity test (Cell Counting Kit-8), HEK293; type: cell-based, human; conditions: 293 (HEK293) cells, 48 hours
Experimental: as §1, §2

[7] = Cytotoxicity test (Cell Counting Kit-8), MDCK; type: cell-based, canine; conditions: dog, MDCK cells, read-out: CC50 (50% cytotoxicity concentration) (converted)
Experimental: as §1
as §2, with “A final concentration value of the test compound when an absorbance was 50% was calculated as a 50% cytotoxicity concentration (CC50 value).” left out

## CC(=O)C(C)=NO [2,3-Butanedione 2-Monoxime]
[1]; 30 mM
  cell viability: significantly reduced
Influenza virus
  anti-influenza virus effect: had an anti-influenza virus effect

## CC(C)C[C@H](NC(=O)[C@H](Cc1ccccc1)NC(=O)c1cnccn1)B(O)O [Bortezomib]
Influenza virus; 0.2 μM, A549 cells, MOI 0.001, 48 hours
  virus titer reduced by a common logarithmic value: 4 common logarithmic value
A549 cells [2]
  cytotoxicity: without showing severe cytotoxicity

## C=C1[C@@H]2CC[C@H]3[C@]4(C)C[C@H](O[C@@H]5O[C@H](CO)[C@@H](OS(=O)(=O)O)[C@H](OS(=O)(=O)O)[C@H]5OC(=O)CC(C)C)CC(C(=O)O)(C(=O)O)[C@H]4CC[C@]3(C2)[C@H]1O [Carboxyatractyloside]
[3]
  Ki: < 0.01 µM

## COc1cc2c(c(OC)c1OC)-c1ccc(OC)c(=O)cc1[C@@H](NC(C)=O)CC2 [Colchicine]
A549 cells [4]
  cytotoxicity: without showing severe cytotoxicity
Influenza virus
  virus titer reduced by a common logarithmic value: 2 common logarithmic value

## N#C/C(=C\c1ccc(O)c(O)c1)C(=O)NCc1ccccc1 [Compound J4, (E)-N-benzyl-2-cyano-3-(3,4-dihydroxyphenyl)acrylamide]
[5]
  CC50 at 48 h: 2690 µM

## O=C(Nc1c[nH]nc1-c1nc2cc(CN3CCOCC3)ccc2[nH]1)NC1CC1 [Compound J7, 1-cyclopropyl-3-(3-(5-(morpholinomethyl)-1H-benzo[d]imidazol-2-yl)-1H-pyrazol-4-yl) urea]
[5]
  CC50 at 48 h: > 316 µM

## N#CCNC(=O)c1ccc(-c2ccnc(Nc3ccc(N4CCOCC4)cc3)n2)cc1 [Compound J8, N-(cyanomethyl)-4-(2-(4-morpholinophenylamino)pyrimidin-4-yl)benzamide]
[6]; HEK293 cells
  CC50 at 48 h: > 316 µM

## CN1CCN(c2cccc(Nc3nc4c(-c5ccc(S(C)(=O)=O)cc5)cccn4n3)c2)CC1 [Compound J11]
HEK293 cells
  CC50 (50% cytotoxicity concentration): >5.5 log10, nM

## Fc1cc(-c2cccc3ncc(-c4cnn(C5CCNCC5)c4)nc23)cc(F)c1CN1CCOCC1 [Compound J13, 8-(3,5-difluoro-4-(morpholinomethyl)phenyl)-2-(1-(piperidin-4-yl)-1H-pyrazol-4-yl)qui noxaline]
[6]; HEK293 cells
  CC50 at 48 h: 20.9 µM

## CC(C)N(CCC(=O)c1ccc2ccccc2c1)Cc1ccccc1 [Compound J15, 1-propanone, 3-[(1-methylethyl)(phenylmethyl)amino]-1-(2-naphthalenyl)-, hydrochloride (1:1)]
[6]; HEK293 cells
  CC50 at 48 h: 47.9 µM

## O=C(Nc1nc2cccc(-c3ccc(CN4CCS(=O)(=O)CC4)cc3)n2n1)C1CC1 [Compound J19, N-[5-[4-[(1,1-dioxido-4-thiomorpholinyl)methyl]phenyl][1,2,4]triazolo[1,5-a]pyridin-2-yl]cyclopropanccarboxamidc]
[7]
  CC50 at 48 h: > 316 µM
[6]; HEK293 cells
  CC50 at 48 h: > 316 µM
[5]
  CC50 at 48 h: > 316 µM

## COc1cc2ncnc(Nc3ccc(O)cc3)c2cc1OC [Compound J20, 4-[(6,7-dimethoxy-4-quinazolinyl)amino]-phenol]
[6]; HEK293 cells
  CC50 at 48 h: > 316 µM

## Cl.Cl.Fc1cc(-c2cccc3ncc(-c4cnn(C5CCNCC5)c4)nc23)cc(F)c1CN1CCOCC1 [Compound J21, 4-[[2,6-difluoro-4-[3-(1-piperidin-4-ylpyrazol-4-yl)quinoxalin-5-yl]phenyl]methyl]morpholine; dihydrochloride]
[6]
  CC50 at 48 h: 38.9 µM

## CN1C/C=C/CCOc2cccc(c2)-c2ccnc(n2)Nc2cccc(c2)C1 [Compound J23, 20-oxa-5,7,14,27-tetraazatetracyclo[19.3.1.12,6.18, 12]heptacosa-1(25),2,4,6(27),8,10,12(26),16,21,23-decane,14-methyl-]
[7]
  CC50 at 48 h: 7.94 µM
[6]; HEK293 cells
  CC50 at 48 h: 52.5 µM
[5]
  CC50 at 48 h: 35.5 µM

## CCC[C@H](NC(=O)/C(C#N)=C/c1cccc(Br)n1)c1ccccc1 [Compound J25, (2E)-3-(6-bromo-2-pyridinyl)-2-cyano-N-[1S-phenylbutyl]-2-propenamide]
[1]; 50 μM
  cell viability: significantly reduced
Influenza virus
  anti-influenza virus effect: had an anti-influenza virus effect
HEK293 cells
  CC50 (50% cytotoxicity concentration): 3.69 log10, nM

## O=c1c(-c2ccc(O)cc2)coc2cc(O)cc(O)c12 [Genistein]
Influenza virus
  anti-influenza virus effect: had an anti-influenza virus effect

## Fc1cc(F)c2c(c1)C1C=CCC1C(c1cccnc1)N2 (centres unmarked) [Golgicide A]
[1]; summary of Example 2
  toxicity to host cells: relatively low toxicity to host cells
Influenza virus
  anti-influenza virus effect: had an anti-influenza virus effect
  effect on virus titer: significantly reduced a virus titer

## O=C1/C(=C/c2ccc(O)c(Br)c2)CCC/C1=C\c1ccc(O)c(Br)c1 [Histone acetyltransferase inhibitor II]
Influenza virus
  anti-influenza virus effect: had an anti-influenza virus effect
